Nine compounds from patent publication US9605013B2, “Derivatives of hemin with antibacterial and antiviral activity” (OBSCHESTVO S OGRANICHENNOI OTVETSTVENNOSTIYU …, priority 2011, dated 2017) can be followed below.

Marks after values point to notes of the source that are not given here.

Assay type in all cases: cell-based
Experiment [1] deals with Bacillus subtilis BKM B-501. Kind of experiment: Antibacterial activity, serial dilutions in liquid MH medium. To be noted: for MIC: MH medium, 20 h, 37° C., 100% growth inhibition; for MBC: no colonies on agarized MH medium. The procedure:
(§1) The antibacterial activity of the compounds was determined against strains of gram-positive bacteria such as Staphylococcus aureus 209P, Enterococcus faecalis BKM B-871, Micrococcus luteus BKM Ac-2230, Bacillus subtilis BKM B-501, and gram-negative bacteria such as Pseudomonas aeruginosa PAO1 and Escherichia coli KM MGU C-600. BKM strains were acquired from the All-Russia Collection of Microorganisms at the Institute for Biochemistry and Physiology of Microorganisms, Russian Academy of Sciences. Strain Staphylococcus aureus 209P was acquired from the Collection of Microorganisms at the Department of microbiology of the Faculty of Biology of Lomonosov Moscow State University, and Pseudomonas aeruginosa PAO1 was acquired from the Collection of Microorganisms at the Institute of Bioorganic Chemistry of the Russian Academy of Sciences.
(§2) The main parameters characterizing the antibacterial activity are the minimal inhibitory concentration (MIC) and minimal bactericidal concentration (MBC). […] MBC is the least concentration that causes the death of all cells.
(§3) MIC was quantified by inhibiting culture growth in a liquid medium with serial dilutions of compounds using a modified procedure [Amsterdam, D., 1966. “Susceptibility testing of antimicrobials in liquid media,” pp. 52-111. In Loman, V., ed. Antibiotics in laboratory medicine, 4th ed. Williams and Wilkins, Baltimore].
(§4) Bacteria were cultured and tested on an MH liquid medium (Mueller-Hinton medium: a dry extract of beef broth, 4 g/L; starch, 1.5 g/L; casein hydrolyzate, 17.5 g/L; Sigma-Fluka Catalog No. 70192) at 37° C., 100% humidity, and under stirring. Cultures (within 4 to 7 passages after thawing) in the exponential growth phase were used for tests.
(§5) All tested compounds absorb light at 595 nm, a wavelength used for evaluating bacterial culture growth. Therefore, a correction for absorption was applied in estimating the optical density of bacterial suspensions for each compound with account for its concentration in the well. Bacterial growth inhibition (GI) as percentage after 20 hours of incubating cells with compounds was derived from the optical density (A) measured in every well at a wavelength of 595 nm using the equation: GIi=[(Act−Ac0)−(Ait−Ai0)]×100/(Act−Ac0), (1) wherein the subscripts have the following meanings: i denotes the well number, c denotes a control well with bacteria whereto the tested compound is not inserted, 0 refers to the measurement taken immediately once the tested compound was inserted to the well, and t refers to the measurement taken 20 hours after the compound was inserted.
(§6) The protocol for the determination of experimental antibacterial activity of the tested compounds was as follows. A cryovial with the test strain culture in a medium with 7% DMSO stored in liquid nitrogen, was rapidly defrosted, and 1.5 mL of the fresh MH medium was inoculated with 100 μL of the cell suspension. Cells were grown for one day at 37° C. and stirred on an orbital shaker at 150 rpm. The morphologic features of the strain and the absence of contamination with foreign bacteria were verified by: (a) inoculation on an agarized (15 g/L agar) MH medium and observation of the shape and color of the grown colonies and (b) examination of characteristic morphologic features under a microscope (Mikmed-2, LOMO, Russia) equipped with a 40× objective lens. Further, the bacteria were cultured in 1 mL of the liquid MH medium at 37° C. under stirring. The cells were reseeded every day. Cell cultures were used in tests starting with 3rd reseeding and ending with 6th one.
(§7) For testing, 5 μL of a bacterial suspension in the stationary growth phase was transferred to 1 mL of a sterile MH medium and incubated until the exponential growth phase was attained (3 to 5 h, 37° C., stirring at 150 rpm). To estimate the microorganism concentration, the optical density (A) of the resulting bacterial culture was measured at a wavelength of 595 nm. […]

For experiment [2], the system named is Micrococcus luteus BKM Ac-2230. The experiment is described as above. The following applies: for MIC: MH medium, 20 h, 37° C., 100% growth inhibition; for MBC: no colonies on agarized MH medium. How it is done: as §1, §2, §3, §4, §5, §6, §7
The test system of experiment [3] is Staphylococcus aureus 209P. The description is as above. To be noted: for MIC: MH medium, 20 h, 37° C., 100% growth inhibition; for MBC: no colonies on agarized MH medium. The procedure: as §1, §2, §3, §4, §5, §6, §7
Experiment [4] concerns Enterococcus faecalis No. 559. Kind of experiment: Antibacterial specific activity, twofold dilutions, visual growth evaluation. To be noted: E. faecalis 559; 36° C., 24 hours. How it is done: (§8) The specific activity of compounds also was determined against bacteria strains such as Staphylococcus aureus No. 25923 ATCC (American Type Culture Collection); Staphylococcus aureus No. 100 KC; Staphylococcus epidermidis No. 533; Enterococcus faecalis No. 559; Enterococcus faecium No. 569, Staphylococcus aureus No. 5 (MRSA), Staphylococcus aureus No. 3797 (MRSA). Staphylococcus aureus was cultured on the Trypticase Soy Agar (BBL) commercially available dry medium. Enterococcus faecalis was cultured on the Columbia Agar (BBL) commercially available dry medium. These media were sterilized by autoclaving at 121° C. for 15 min. Bacterial inoculum was constant and was 5×10^5 CFU/ml (10^5 CFU/0.2 ml). For water-soluble compounds, wells from 2nd through 8th were added with the solvent (water) in an amount of 15 μL per well, then the 1st well was added with 30 μL of the stock solution of the tested compound in […] with a concentration of […], and the concentration was adjusted to 0.007×10^3 M by serial twofold dilutions. A 10-μL portion was taken from every well, and 190 μL of the bacterial culture (10^5 CFU) was added per well. For DMSO-soluble compounds, wells from 2nd through 8th were added with the solvent (DMSO) in an amount of 10 μL per well, then the 1st well was added with 20 μL of the stock solution of the tested compound in […] with a concentration of […], and the concentration was adjusted to 0.039×10^3 M by serial twofold dilutions. A 2-μL portion was taken from each well, and 198 μL of the bacterial culture (10^5 CFU) was added per well.
(§9) The control comprised wells free of tested compounds (culture growth control). In addition, purity control of nutritional media and solvents was used. Plates were incubated in a thermostat at 36° C. for 24 hours.
(§10) Culture growth was evaluated visually by comparison of how microorganisms grew in the presence of tested compounds and in the absence of them. MIC was set equal to the last dilution of a tested agent which suppressed bacterial culture growth.

A further experiment concerns Escherichia coli 4300. The description is as above. To be noted: E. coli 4300; 36° C., 24 hours. The procedure:
[Worded in the source for another organism; this organism is reported under the same test.] as §8, §9, §10

The test system of experiment [5] is Staphylococcus aureus No. 100 KC. The experiment is described as above. To be noted: S. aureus 100 KC; 36° C., 24 hours. How it is done:
as §8, §9, §10

In experiment [6] the test system is Staphylococcus aureus No. 25923 ATCC. The description is as above. To be noted: S. aureus 25923; 36° C., 24 hours. How it is done: as §8, §9, §10
The subject of experiment [7] is Staphylococcus aureus No. 3797 (MRSA). The description is as above. To be noted: St. aur No. 3797 MRSA; 36° C., 24 hours. The procedure:
as §8, §9, §10

Experiment [8] relates to Staphylococcus aureus No. 5 (MRSA). The experiment is described as above. To be noted: St. aur No. 5 MRSA; 36° C., 24 hours. How it is done: as §8, §9, §10
The subject of experiment [9] is Staphylococcus epidermidis No. 533. Described as above. The following applies: S. epidermis 533; 36° C., 24 hours. The procedure: as §8, §9, §10
Experiment [10] deals with Vancomycin-resistant Enterococcus faecium 569. The experiment is described as above. The following applies: Vancomycin-resistant E. faecium 569; 36° C., 24 hours. The procedure:
as §8, §9, §10

In experiment [11] the test system is Enterococcus faecalis BKM B-871. Kind of experiment: Antibacterial activity, serial dilutions in liquid MH medium. The following applies: for MIC: MH medium, 20 h, 37° C., 100% growth inhibition; for MBC: no colonies on agarized MH medium. The procedure:
as §1, §2, §3, §4, §5, §6, §7

As for “6,7-bis-(N^α-Glycyl]-Protohemin (IX) [VII]”, the MIC – broadly, the least concentration at which growth counts as inhibited – was 25 µM in [1]; 12.5 µM in experiment [2]; 50 µM in experiment [3]; >50.0 µM in experiment [4]; >50.0 µM against Escherichia coli 4300; 12.5 µM in experiment [5]. Besides, the MIC in experiment [6] is 2.6 µM; in experiment [7], 6.25 µM; in experiment [8], 6.25 µM; in experiment [9] it was 6.25 µM; in experiment [10] it was >50.0 µM. Besides, the MBC in experiment [1] and in experiment [2] was 25 µM each time.
For “6,7-bis-[(Methyl Ester N^α-L-Arginyl)-L-Seryl]-Protohemin (IX) [XXI]”, the MIC is 1.56 µM in experiment [4]; >50.0 µM in the experiment with Escherichia coli 4300; 0.65 µM in experiment [5]; 0.39 µM in experiment [6]; 1.56 µM in [7]; 0.65 µM in [8]. Also, the minimal inhibitory concentration (MIC) in experiment [9] came out at 0.78 µM; in experiment [10], 6.25 µM.
As to “6,7-bis-[(Methyl Ester N^α-L-Seryl)-L-Arginyl]-Protohemin (IX) [XIX]”, the MIC in experiment [4] is 1.3 µM; in the experiment on Escherichia coli 4300 it was >50.0 µM; in experiment [5] it was 0.78 µM; in experiment [6], 0.65 µM; in experiment [7], 1.3 µM; in [8] it was 1.56 µM. Besides, the values for the MIC in experiment [9] and in [10] were 1.3 µM and 6.25 µM, respectively.
Turning to “6,7-bis-[(N^α-L-Arginyl)-L-Seryl]-Protohemin (IX) [XXIV]”, the MIC in experiment [4] is >50.0 µM; against Escherichia coli 4300 it was >50.0 µM; in experiment [5], 5.20 µM; in experiment [6] it was >50.0 µM; in experiment [7], 25 µM; in [8], 25 µM. Moreover, the MIC is 2.60 µM in [9] and 6.25 µM in [10].
For the compound “6,7-bis-[(N^α-L-Seryl)-L-Arginyl]-Protohemin (IX) [XXII]”, the MIC in experiment [4] is >50.0 µM; in the experiment on Escherichia coli 4300 it was >50.0 µM; in experiment [5] it was 0.39 µM; in experiment [6] it was 1.3 µM; in experiment [7], 20.8 µM; in experiment [8] it was 25 µM. Also, the figures for the MIC in experiment [9] and in experiment [10] were 1.3 µM and 5.2 µM, respectively.
With `C=CC1=C(C)C2=Cc3c(C=C)c(C)c4[n]3[Fe]([Cl])[n]3c(c(C)c(CCC(=O)N[C@@H](CCCNC(=N)N)C(=O)OC)c3=CC3=NC(=C4)C(C)=C3CCC(=O)N[C@@H](CCCNC(=N)N)C(=O)OC)=CC1=N2` [XV, reference compound], the MIC in [1] is 3.1 µM; in experiment [11], 50 µM; in [2] it was 1.6 µM; in [3] it was 50 µM; in experiment [4], 25 µM; in the experiment on Escherichia coli 4300, >50 µM. The MIC in experiment [5] was 50 µM; in [6], 25 µM; in experiment [9] it was 25 µM; in experiment [10] it was >50 µM. Besides, the MBC (as a rule, the lowest tested concentration that kills the bacteria rather than only halting them) in experiment [1] was found to be 3.1 µM; in [11] it was 400 µM; in experiment [2], 3.2 µM; in experiment [3], 200 µM.
For the compound `C=CC1=C(C)C2=Cc3c(C=C)c(C)c4[n]3[Fe]([Cl])[n]3c(c(C)c(CCC(=O)N[C@@H](CCC(=O)N[C@@H](CCCNC(=N)N)C(=O)OC)C(=O)N[C@@H](CCCNC(=N)N)C(=O)OC)c3=CC3=NC(=C4)C(C)=C3CCC(=O)N[C@@H](CCC(=O)N[C@@H](CCCNC(=N)N)C(=O)OC)C(=O)N[C@@H](CCCNC(=N)N)C(=O)OC)=CC1=N2` [XVI, reference compound], the minimum inhibitory concentration (MIC) is 1.6 µM in [1], 12.5 µM in experiment [11], 3.1 µM in [2] and 6.3 µM in experiment [3]. Further, the MBC was >200** μM in experiment [1], >200** μM in experiment [11], 12.5 µM in [2] and >200** μM in experiment [3].
Consider `C=CC1=C(C)C2=Cc3c(C=C)c(C)c4[n]3[Fe]([Cl])[n]3c(c(C)c(CCC(=O)NCC(=O)OC)c3=CC3=NC(=C4)C(C)=C3CCC(=O)NCC(=O)OC)=CC1=N2` [XVII, reference compound], for which the MIC in experiment [1] was 12.5 µM; in [11], 100 µM; in experiment [2], 1.6 µM; in experiment [3], 50 µM; in experiment [4], 25 µM; against Escherichia coli 4300 it was >50 µM. For the same compound, the minimum inhibitory concentration (MIC) is >50 µM in experiment [5], 25 µM in experiment [6], 25 µM in [9] and >50 µM in experiment [10]. Moreover, the MBC in [1] is 25 µM; in [11] it was >200** μM; in experiment [2], 6.5 µM; in [3], 50 µM.
As for `C=CC1=C(C)C2=Cc3c(C=C)c(C)c4[n]3[Fe]([Cl])[n]3c(c(C)c(CCC(=O)N[C@@H](CO)C(=O)OC)c3=CC3=NC(=C4)C(C)=C3CCC(=O)N[C@@H](CO)C(=O)OC)=CC1=N2` [XVIII, reference compound], the MIC was 6.3 µM in [1], 12.5 µM in experiment [11], 6.3 µM in experiment [2] and 25 µM in experiment [3]. The MBC in experiment [1] came to 9 µM; in experiment [11], 25 µM; in experiment [2], 12.5 µM; in experiment [3] it was 200 µM.
